In patent US20230248785A1, “METHODS AND COMPOSITIONS FOR TREATING METABOLIC CONDITIONS” (BACTANA CORP., priority 2020, published 2023):

Test system: C57BL/6J mice on high-fat diet (prediabetes)
Experiment: Fasting blood glucose in prediabetic high-fat diet mice treated with FPZ, metformin or the combination (Example 6)
Assay type: in vivo
Conditions: after 2 weeks of daily oral gavage, 100 mg/kg; control gavaged with water
Description: The study uses 29 C57BL/6J mice, which are placed on a high-fat diet and allowed to develop prediabetes. The mice are fasted for 16 h, and the fasting blood glucose levels are measured to be greater than 105 mg/dL. The mice are divided up into control and treatment groups, and they are treated daily for 7 weeks with either 100 mg/kg FPZ, 100 mg/kg metformin, or a combination of FPZ with metformin, given by oral gavage. Fasting blood glucose are recorded at 2, 4, and 7 weeks of treatment.

Q: Which “reduction in fasting blood glucose level compared to the control group” value does the source give for `CN(C)C(=N)N=C(N)N` [metformin] here?
A: 24%
